Data as given in the NIST ThermoML archive (doi:10.1021/je600568w).

Tests used:
[1] = xn = mol fraction of the nth substance listed; conditions: 101 kPa, Liquid; for viscosity: Capillary tube (Ostwald / Ubbelohde) method
[2] = 101 kPa, Liquid; for viscosity: Capillary tube (Ostwald / Ubbelohde) method

C=C(C)C(=O)O [2-methyl-2-propenoic acid] + CCOC(=O)C(C)O
[1]
Conditions	mass density, 298.15 K [kg/m3]	mass density, 308.15 K [kg/m3]	mass density, 318.15 K [kg/m3]	viscosity, 298.15 K [mPa·s]	viscosity, 308.15 K [mPa·s]	viscosity, 318.15 K [mPa·s]
x2 = 0	1009.5	999.4	989.2	1.267	1.078	0.945
x2 = 0.1	1012.1	1002	991.7	1.422	1.19	1.02
x2 = 0.2	1014.6	1004.6	994.5	1.66	1.368	1.154
x2 = 0.3	1017	1007.4	997.3	1.933	1.567	1.306
x2 = 0.3999	1019.8	1010.2	999.9	2.181	1.742	1.43
x2 = 0.5	1022.5	1012.7	1002.2	2.378	1.87	1.52
x2 = 0.6	1024.7	1014.8	1004.2	2.465	1.929	1.551
x2 = 0.6999	1026.5	1016.5	1005.8	2.532	1.967	1.579
x2 = 0.8	1027.9	1017.8	1007.2	2.539	1.962	1.567
x2 = 0.9001	1028.7	1018.6	1008.2	2.471	1.907	1.526

C=C(C)C(=O)O [2-methyl-2-propenoic acid]
[2]
Conditions	mass density [kg/m3]	viscosity [mPa·s]
298.15 K	1009.5	1.267
308.15 K	999.4	1.078
318.15 K	989.2	0.945

C=C(C)C(=O)OCc1ccccc1 [benzyl methacrylate]
[2]
Conditions	mass density [kg/m3]	viscosity [mPa·s]
298.15 K	1034.7	2.302
308.15 K	1025.8	1.885
318.15 K	1017	1.58

CCOC(=O)C(C)O (stereo not drawn) [DL-ethyl lactate] + C=C(C)C(=O)OCc1ccccc1
[1], x1 = 1
Conditions	mass density [kg/m3]	viscosity [mPa·s]
298.15 K	1029.1	2.398
308.15 K	1018.7	1.863
318.15 K	1007.5	1.494

C=C(C)C(=O)OCCO [2-hydroxyethyl 2-methyl-2-propenoate] + CCOC(=O)C(C)O
[1]
Conditions	mass density, 298.15 K [kg/m3]	mass density, 308.15 K [kg/m3]	mass density, 318.15 K [kg/m3]	viscosity, 298.15 K [mPa·s]	viscosity, 308.15 K [mPa·s]	viscosity, 318.15 K [mPa·s]
x2 = 0	1067.1	1057.7	1048.6	5.784	4.194	3.181
x2 = 0.1	1063.9	1054.7	1045.6	5.23	3.833	2.938
x2 = 0.2	1060.6	1051.4	1042.2	4.75	3.513	2.71
x2 = 0.3	1057.1	1047.9	1038.5	4.36	3.215	2.493
x2 = 0.4	1053.5	1044.3	1034.6	3.989	2.975	2.311
x2 = 0.5	1049.8	1040.4	1030.6	3.663	2.742	2.141
x2 = 0.6	1045.9	1036.4	1026.4	3.343	2.526	1.985
x2 = 0.7	1041.8	1032.2	1022	3.041	2.323	1.834
x2 = 0.8	1037.7	1027.9	1017.5	2.767	2.127	1.689
x2 = 0.9	1033.4	1023.4	1012.8	2.524	1.949	1.556
